This experiment deals with High affinity nerve growth factor receptor (Homo sapiens, UniProt P04629). Description: HotSpot Assay: The HotSpot assay platform was used to measure kinase/inhibitor interactions as described in Anastassiadis et al., Nat Biotechnol. 29:1039-45, 2011. In brief, for each reaction, kinase and substrate were mixed in a buffer containing 20 mM HEPES (pH 7.5), 10 mM MgCl2, 1 mM EGTA, 0.02% Brij35, 0.02 mg/mL BSA, 0.1 mM Na3VO4, 2 mM DTT, and 1% DMSO. Compounds were then added to each reaction mixture. After a 20-min incubation, ATP (Sigma-Aldrich) and [γ-33P] ATP (PerkinElmer) were added at a final total concentration of 100 μM. Reactions were carried out at room temperature for 2 h and spotted onto P81 ion exchange cellulose chromatography paper (Whatman). Filter paper was washed in 0.75% phosphoric acid to remove unincorporated ATP. The percent remaining kinase activity relative to a vehicle-containing (DMSO) kinase reaction was calculated for each kinase/inhibitor pair.
Chain of High affinity nerve growth factor receptor (P04629 whole entry): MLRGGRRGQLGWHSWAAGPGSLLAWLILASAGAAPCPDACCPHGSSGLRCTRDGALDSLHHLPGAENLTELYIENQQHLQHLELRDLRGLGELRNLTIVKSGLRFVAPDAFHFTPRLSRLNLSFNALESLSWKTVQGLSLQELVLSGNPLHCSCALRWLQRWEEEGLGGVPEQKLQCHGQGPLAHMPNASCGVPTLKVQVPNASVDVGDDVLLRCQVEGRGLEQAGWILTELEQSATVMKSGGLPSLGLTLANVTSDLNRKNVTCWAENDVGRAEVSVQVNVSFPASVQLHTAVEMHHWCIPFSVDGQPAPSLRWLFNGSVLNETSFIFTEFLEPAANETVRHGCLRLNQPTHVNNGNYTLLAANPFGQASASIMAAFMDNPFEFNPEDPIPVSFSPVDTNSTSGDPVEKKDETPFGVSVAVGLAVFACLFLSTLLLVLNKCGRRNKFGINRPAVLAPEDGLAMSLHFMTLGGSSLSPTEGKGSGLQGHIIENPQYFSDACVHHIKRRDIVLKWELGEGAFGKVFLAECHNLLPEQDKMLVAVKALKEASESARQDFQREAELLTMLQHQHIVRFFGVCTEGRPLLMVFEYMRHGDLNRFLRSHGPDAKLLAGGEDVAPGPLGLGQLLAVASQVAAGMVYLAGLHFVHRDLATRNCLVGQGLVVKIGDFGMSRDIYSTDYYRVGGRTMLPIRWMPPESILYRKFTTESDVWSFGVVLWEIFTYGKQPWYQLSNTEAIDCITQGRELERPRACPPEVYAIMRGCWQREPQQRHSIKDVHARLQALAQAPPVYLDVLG

As a reminder, the IC50 is the concentration that inhibits the measured activity by half. In the case of `C=C1c2ncc(F)cc2[C@H]2CCCN2c2ccn3ncc(c3n2)C(=O)N[C@@H]1C`, the IC50 was < 100 nM.

The values above are taken from ChEMBL document CHEMBL5728681, “Macrocyclic compounds as TRK kinase inhibitors and uses thereof” (2021).
